Assay results reported in patent publication US20230242521A1, “PHARMACEUTICAL COMPOSITION FOR PREVENTING OR TREATING PANCREATIC CANCER ASSOCIATED WITH RON MUTATION AND METHOD USING SAME” (WELLMARKER BIO CO., LTD., priority 2020, published 2023).
Structures can show the parent of a compound that is named as a salt.

Columns and labels:
[1] = system: Panc-1 pancreatic cancer cell line (mutation RONΔ155 type); experiment: MTS assay, cell growth inhibitory ability, Panc-1; type: cell-based; settings: Homo sapiens; Panc-1, RON mutation Δ155, cultured 72 hours
Protocol: (§1) In order to compare and confirm the cell growth inhibitory ability of Examples 1 (WM-S1-030) to 5 and positive control 1 (BMS-777607) in two pancreatic cancer cell lines ofa mutation RONΔ155 type (Panc-1 and Capan-1) and one pancreatic cancer cell line of a mutation RONΔ160 type (Mia-PaCa2), MTS assay was carried out.
(§2) For MTS assay, 1,000 cells of each pancreatic cancer cell line per well were seeded in a 96-well-plate, and 24 hours later, treated with the compounds of Examples 1 to 5 and positive control 1 at various concentrations (0.000001 μM to 10 μM) in 100 μL of 10% FBS-RPMI medium (Welgene) per each well. Thereafter, the cells were cultured for 72 hours. 20 μL of MTS solution (Promega) was added and cultured for 2 hours, and then absorbance was measured at 490 nm. The cytotoxicity was analyzed by deriving the IC50 for the compounds of Examples 1 to 5 and positive control 1 using GraphPad Prism™ 5.

[2] = system: Capan-1 pancreatic cancer cell line (mutation RONΔ155 type); experiment: MTS assay, cell growth inhibitory ability, Capan-1; type: cell-based; settings: Homo sapiens; Capan-1, RON mutation Δ155, cultured 72 hours
Protocol: as §1, §2

[3] = system: Mia-PaCa2 pancreatic cancer cell line (mutation RONΔ160 type); experiment: MTS assay, cell growth inhibitory ability, Mia-PaCa2; type: cell-based; settings: Homo sapiens; Mia-PaCa-2, RON mutation Δ160, cultured 72 hours
Protocol: as §1, §2

[4] = system: pancreatic cancer cell lines of mutation RONΔ155 type (Panc-1 and Capan-1) and RONΔ160 type (Mia-PaCa2); experiment: MTS assay, text summary over the three pancreatic cancer cell lines; type: cell-based; settings: Panc-1, Capan-1, Mia-PaCa2; 0.000001 μM to 10 μM, 72 hours
Protocol: as §1, §2

[5] = system: pancreatic cancer cell lines of a mutation RON type (Panc-1, Capan-1, Mia-PaCa2); experiment: Cell killing efficacy, trypan blue exclusion assay; type: cell-based; settings: 1 μM and 5 μM, 48 hours
Protocol: FIGS. 1A to IC illustrate the results obtained by comparing and confirming the cell killing efficacy for the Panc-1 and Capan-1 cell lines, which are pancreatic cancer cell lines of a mutation RONΔ155 type, and the Mia-PaCa2 cell line, which is a pancreatic cancer cell line of a mutation RONΔ160 type, having been treated with the compounds of Examples 1 (WM-S1-030) to 5 and positive control 1 (BMS-777607) at a concentration of 1 μM and 5 μM, respectively.
Two pancreatic cancer cell lines of a mutation RONΔ155 type (Panc-1 and Capan-1) and one pancreatic cancer cell line of a mutation RONΔ160 type (Mia-PaCa2) were dispensed, and 24 hours later, treated with 1 μM and 5 μM of the compounds of Examples 1 (WM-S1-030) to 5 and positive control 1 (BMS-777607), respectively, while replacing the medium. After 48 hours, the cells and the cell fluid were harvested (1,500 rpm, 4 minutes), and live cells and dead cells were quantified through trypan blue (15250-061, Gibco) exclusion assay. Statistical analysis was performed using T-test in Excel.

[6] = system: Mia-PaCa2 (mRONΔ160) pancreatic cancer cell line transplanted tumor; experiment: Tumor growth inhibition in Mia-PaCa2 transplanted mouse model; type: in vivo; settings: orally once a day for 4 weeks; for Tumor growth inhibition rate (TGI, %): 30 mg/kg, BALB/c-nude mice with Mia-PaCa2 tumor; for tumor growth inhibition (in words): 30 mpk, Mia-PaCa2 transplanted mice
From the text: FIG. 2 illustrates the results obtained by confirming the tumor growth rate for a mouse model transplanted with the Mia-PaCa2 cell line, which is a pancreatic cancer cell line of a mutation RONΔ160 type, having received Example 1 (WM-S1-030) at a dose of 30 mpk and positive control 1 (BMS-777607) at a dose of 30 mpk. It was confirmed whether tumor growth was inhibited by administering Example 1 (WM-S1-030) at a dose of 30 mpk to a mouse model transplanted with Mia-PaCa2, which is a pancreatic cancer cell line of a mutation RONΔ160 type. Specifically, 5-week-old female BALB/c-nude mice were purchased and acclimatized for 1 week. Thereafter, Mia-PaCa2 (2×10^6 cells/mouse), a pancreatic cancer cell line of a mutation RONΔ160 type, was diluted in PBS (phosphate buffered saline) and Matrigel, and 100 μL was injected subcutaneously into the right dorsal side of the mouse. When the size of the tumor reached about 100 mm^3, the negative control (excipient) and Example 1 were orally administered. In this case, positive control 1 (BMS-777607) was administered at a dose of 30 mpk. The drug was administered once a day for 4 weeks, and the tumor size and body weight were measured twice a week. After the drug administration was completed, the mice were euthanized, the tumor was extracted, and the weight was measured.

pTyr-mRON = experiment: Immunochemical staining of tumor tissue, Mia-PaCa2 transplanted mouse model: pTyr-mRON; type: in vivo; settings: 10 mpk, 30 mpk, Mia-PaCa2 transplanted mice
Protocol: (§3) FIG. 3 illustrates the results obtained by immunochemical staining of the tumor tissue for a mouse model transplanted with the Mia-PaCa2 cell line, which is a pancreatic cancer cell line of a mutation RONΔ160 type, having received Example 1 (WM-S1-030) at a dose of 10 mpk or 30 mpk and the positive control (BMS-777607) at a dose of 30 mpk.
(§4) Example 1 (WM-S1-030) was administered at each concentration (10 mpk, 30 mpk) and positive control 1 (BMS-777607) was administered at a dose of 30 mpk to a mouse model transplanted with the Mia-PaCa2 cell line, which is a pancreatic cancer cell line of a mutation RONΔ160 type. The tumor was extracted, and the expression changes of the proteins were analyzed by immunochemical staining.
(§5) Specifically, paraffin slides were prepared using tissues isolated from the sacrificed mice. The tissue sections were deparaffinized and rehydrated, immersed in the target recovery buffer 1× (ScyTek Laboratories, Cat #CBB999) and heated for 15 minutes to perform an antigen recovery process. After the reaction, the tissue sections were washed in Tris buffered saline-0.05% Tween 20 (TBS-T) (T&I, BTT-9310) for 5 minutes, and then the reaction was performed with a non-specific antibody response blocking reagent (vector, SP-5035) for 1 hour. […]

cleaved caspase 3 = experiment: Immunochemical staining of tumor tissue, Mia-PaCa2 transplanted mouse model: cleaved caspase 3; type: in vivo; settings: 10 mpk, 30 mpk, Mia-PaCa2 transplanted mice
Protocol: as §3, §4, §5

cyclin D1 = experiment: Immunochemical staining of tumor tissue, Mia-PaCa2 transplanted mouse model: cyclin D1; type: in vivo; settings: 10 mpk, 30 mpk, Mia-PaCa2 transplanted mice
Protocol: as §3, §4, §5

Row | IC50 [1] | IC50 [2] | IC50 [3] | Structure (SMILES) | response to the drug / cell growth inhibition (MTS) [4] | cell death / response to the drug (trypan blue exclusion) [5] | Tumor growth inhibition rate (TGI, %) [6] | tumor growth inhibition (in words) [6] | expression of pTyr-mRON in tumor tissue (pTyr-mRON) | expression of cleaved caspase 3 in tumor tissue (cleaved caspase 3) | expression of cyclin D1 (PD marker) in tumor tissue (cyclin D1)
1 | 310 nM | 170 nM | 150 nM | COc1cc2c(Oc3ccc(NC(=O)c4c5c(cn(-c6ccc(F)cc6)c4=O)CCO5)cc3F)ccnc2cc1OCCCN1CC(C#N)C1 [Example 5, N-[4-({7-[3-(3-cyanoazetidin-1-yl)propoxy]-6-methoxyquinolin-4-yl}oxy)-3-fluorophenyl]-5-(4-fluorophenyl)-6-oxo-2,3,5,6-tetrahydrofuro[3,2-c]pyridine-7-carboxamide] |  |  |  |  |  |  | 
2 | > 10000 nM | > 10000 nM | 6060 nM | CCOc1ccn(-c2ccc(F)cc2)c(=O)c1C(=O)Nc1ccc(Oc2ccnc(N)c2Cl)c(F)c1 [Positive control 1, N-{4-[(2-amino-3-chloro-4-pyridinyl)oxy]-3-fluorophenyl}-4-ethoxy-1-(4-fluorophenyl)-2-oxo-1,2-dihydro-3-pyridinecarboxamide, reference compound] | the response to the drug was low | the response to the drug was low | 4.7 ± 7.4% | tumor growth was inhibited relatively little |  |  | 

Further lines, the compound ahead of its results:

Row | Structure (SMILES) | IC50 [1] | IC50 [2] | IC50 [3] | response to the drug / cell growth inhibition (MTS) [4] | cell death / response to the drug (trypan blue exclusion) [5] | Tumor growth inhibition rate (TGI, %) [6] | tumor growth inhibition (in words) [6] | expression of pTyr-mRON in tumor tissue (pTyr-mRON) | expression of cleaved caspase 3 in tumor tissue (cleaved caspase 3) | expression of cyclin D1 (PD marker) in tumor tissue (cyclin D1)
3 | COc1cc2c(Oc3ccc(NC(=O)c4c5c(cn(-c6ccc(F)cc6)c4=O)CCO5)cc3F)ccnc2cc1OCCN1CCOCC1 [Example 4, N-(3-fluoro-4-{[6-methoxy-7-(2-morpholinoethoxy)quinolin-4-yl]oxy}phenyl)-5-(4-fluorophenyl)-6-oxo-2,3,5,6-tetrahydrofuro[3,2-c]pyridine-7-carboxamide] | 460 nM | 320 nM | 370 nM |  |  |  |  |  |  | 
4 | CCOc1ccn(-c2ccc(F)cc2)c(=O)c1C(=O)Nc1ccc(Oc2ccnc3cc(-c4ccc(CN5CCOCC5)cn4)sc23)c(F)c1.Cl [Example 1, 4-ethoxy-N-[3-fluoro-4-({2-[5-(morpholinomethyl)pyridin-2-yl]thieno[3,2-b]pyridin-7-yl}oxy)phenyl]-1-(4-fluorophenyl)-2-oxo-1,2-dihydropyridine-3-carboxamide hydrochloride] | 2440 nM | 630 nM | 620 nM |  |  | 57.2 ± 3.1% | tumor growth was significantly inhibited | the expression of pTyr-mRON was decreased | the expression of cleaved caspase 3 was induced | the expression of cyclin D1, a PD marker, was decreased
5 | CCOc1ccn(-c2ccccc2)c(=O)c1C(=O)Nc1ccc(Oc2ccnc3cc(-c4ccc(CNCCOC)cn4)sc23)c(F)c1 [Example 2, 4-ethoxy-N-(3-fluoro-4-{[2(5-{[(2-methoxyethyl)amino]methyl}pyridin-2-yl)thieno[3,2-b]pyridin-7-yl]oxy}phenyl)-2-oxo-1-phenyl-1,2-dihydropyridine-3-carboxamide hydrochloride] | 3880 nM | 1540 nM | 1840 nM |  |  |  |  |  |  | 
6 | CCOc1ccn(-c2ccccc2)c(=O)c1C(=O)Nc1ccc(Oc2ccnc3cc(-c4ccc(CN5CCN(C)CC5)cn4)sc23)c(F)c1 [Example 3, 4-ethoxy-N-{3-fluoro-4-[(2-(5-[(-methylpiperazin-1-yl)methyl]pyridin-2-yl)thieno[3,2-b]pyridin-7-yl)oxy]phenyl}-2-oxo-1-phenyl-1,2-dihydropyridine-3-carboxamide hydrochloride] | 1090 nM | 370 nM | 250 nM |  |  |  |  |  |  | 
